# Like-named read-outs stand apart in the source and are kept apart here.
# How the values were obtained:
# Palmer amaranth (PA) = test: PRE greenhouse, 2,4-DC + sulfentrazone, % control; type: in vivo, Amaranthus palmeri; details: 28 DAT, g ai/ha by row: r7-35 2,4-DC 31.2/62.5/125/250/375 (3 rows each) + sulfentrazone 105/210/315 (cycling), r37-41 2,4-DC 31.2/62.5/125/250/375, r42-44 sulfentrazone 105/210/315
# Method: (§1) Test compositions containing 2,4-DC Example 1B and sulfentrazone (Spartan® 4F, 39.6% active ingredient, FMC Corp.) and mixtures of 2-(2,4-dichlorophenyl)methyl-4,4-dimethyl-3-isoxazolidinone and sulfentrazone, were diluted with water to provide the appropriate test rate concentration.
# (§2) The test weeds were Pennsylvania smartweed (PS) (Polygonum pennsylvanicum), Palmer amaranth (PA) (Amaranthus palmeri), velvetleaf (VL) (Abutilon theophrasti), green foxtail (GF) (Setaria viridis), morningglory (MG) (Ipomoea spp.), yellow nutsedge (YN) (Cyperus esculentus), purple nutsedge (PN) (Cyperus rotundus), and benghal dayflower (BD) (Commelina benghalensis). Crops included in the evaluation were corn, wheat, and cowpea. […]
# (§3) The application rates are those shown in Table 3, 3A, an d 3B below for the individual herbicidal solutions and the herbicide compositions of the present invention. […] The control of weeds was evaluated in each experimental test at 28 days after treatment (DAT), 14 DAT for crops. […] Percent weed control was determined by a method similar to the 0 to 100 rating system disclosed in “Research Methods in Weed Science,” 2nd ed., B. Truelove, Ed.; Southern Weed Science Society; Auburn University, Auburn, Ala., 1977.
# [1] = system: weeds; corn, wheat, cotton, cowpea, and bush bean; test: Ex42 PRE greenhouse; type: in vivo; details: crop and rate in the words
# From the text: Thereafter flats were watered and fertilized routinely.
# Corn = details: 21 DAT, PRE
# From the text: (Ipomoea spp.); Italian ryegrass (Lolium perenne L. ssp. multiflorum, LOLMU). Crops tested included corn, wheat, cotton, cowpea, and bush bean.
# Palmer amaranth, common ragweed, Pennsylvania smartweed, velvetleaf, wild oat, green foxtail, morningglory, and Italian ryegrass were screened. […] Thereafter flats were watered and fertilized routinely.
# yellow nutsedge (YN) = test: PRE greenhouse, 2,4-DC + sulfentrazone, % control; type: in vivo, Cyperus esculentus; details: 28 DAT, g ai/ha by row: r8-16 2,4-DC 50/100/200 (3 rows each) + sulfentrazone 105/210/315 (cycling)
# Method: as §1
# (§4) The test weeds were Pennsylvania smartweed (PS) (Polygonum pennsylvanicum), Palmer amaranth (PA) (Amaranthus palmeri), velvetleaf (VL) (Abutilon theophrasti), green foxtail (GF) (Setaria viridis), morningglory (MG) (Ipomoea spp.), yellow nutsedge (YN) (Cyperus esculentus), purple nutsedge (PN) (Cyperus rotundus), and benghal dayflower (BD) (Commelina benghalensis). Crops included in the evaluation were corn, wheat, and cowpea.
# (§5) For pre-emergence testing, four disposable fiber flats (6″ by 10″) for each rate of application of each herbicide solution were filled with top soil, to which seeds of each species were planted in furrows made by a template pressed on the top of the soil. The furrows with crop/weed seeds were covered with soil and were watered well before application of the test compounds. Flats designated for treatment were placed in a spray chamber having a static platform and a movable sprayer and height of the spray nozzle was 10.5 inches above the soil level. Once the sprayer was calibrated using water for spray volume of 30 gallons per acre, flats were sprayed with sprayer at a speed to receive a coverage equivalent of 30 gallons per acre.
# The application rates are those shown in Table 3, 3A, an d 3B below for the individual herbicidal solutions and the herbicide compositions of the present invention. The pre-emergence flats were immediately placed in the greenhouse and watered lightly after treatment for herbicide activation. Thereafter they were regularly watered and feterilized for the duration of the test. The control of weeds was evaluated in each experimental test at 28 days after treatment (DAT), 14 DAT for crops. The results, shown as an average of the replications, were compared with results observed in untreated control flats in the same tests. Percent weed control was determined by a method similar to the 0 to 100 rating system disclosed in “Research Methods in Weed Science,” 2nd ed., B. Truelove, Ed.; Southern Weed Science Society; Auburn University, Auburn, Ala., 1977.
# velvetleaf (VL) = test: PRE greenhouse, 2,4-DC + sulfentrazone, % control; type: in vivo, Abutilon theophrasti; details: 28 DAT, g ai/ha by row: r7-35 2,4-DC 31.2/62.5/125/250/375 (3 rows each) + sulfentrazone 105/210/315 (cycling), r37-41 2,4-DC 31.2/62.5/125/250/375, r42-44 sulfentrazone 105/210/315
# Method: as §1, §2, §3
# morningglory (MG) = test: PRE greenhouse, 2,4-DC + sulfentrazone, % control; type: in vivo, Ipomoea spp.; details: 28 DAT, g ai/ha by row: r7-35 2,4-DC 31.2/62.5/125/250/375 (3 rows each) + sulfentrazone 105/210/315 (cycling), r37-41 2,4-DC 31.2/62.5/125/250/375, r42-44 sulfentrazone 105/210/315
# Method: as §1, §2, §3
# weeds; Sugarcane (CTC20) = test: Ex23 PRE greenhouse; details: 28 DAT, weed and rate in the words
# Method: (Ipomoea spp). The tested crop in this study was Sugarcane (CTC20).
# Sugarcane was direct seeded into 6″ plastic pots using 3-4″ sugarcane setts, oriented bud up, with bud leaf shield removed. 2,4 DC and sulfentrazone were applied alone or combined as tank-mix at each rate mentioned below. […] Treatments were replicated 3 times. […] Thereafter flats were watered and fertilized routinely. […] Visual percent sugarcane injury was recorded at 21 and 28 DAT, using a scale of 0 (no injury, observed as bleaching, stunting or necrosis) to 100 (complete plant death).
# [2] = system: Pennsylvania smartweed (PS); test: PRE greenhouse, 2,4-DC + sulfentrazone (Tables 3-3B), % control; type: in vivo, Polygonum pennsylvanicum; details: 28 DAT, g ai/ha by row: r7-35 2,4-DC 31.2/62.5/125/250/375 (3 rows each) + sulfentrazone 105/210/315 (cycling), r37-41 2,4-DC 31.2/62.5/125/250/375, r42-44 sulfentrazone 105/210/315
# Method: as §1, §2, §3
# sedges = test: Ex26 PRE greenhouse; type: in vivo; details: 28 DAT, weed and rate in the words
# From the text: Treatments were applied at the time of planting to yellow nutsedge, purple nutsedge, and benghal dayflower. […] Flats were watered and fertilized routinely after treatment application.
# weeds = test: Ex10 PRE greenhouse; type: in vivo; details: 28 DAT, weed and rate in the words
# From the text: Treatments 1-12 of 2,4-DC and aclonifen tank-mix combinations follow same rates listed above. […] Sulfentrazone (Spartan 4F® 39.6%) at 280 g ai/ha, pendimethalin (Prowl 3.3®EC, 37.4%) at 784 g ai/ha, or S-metolachlor (Dual II Magnum® 82.4%) at 1084 g ai/ha were applied as commercial standards. Treatments were replicated 3 times and flats were watered after planting but before the treatment and lightly watered after treatment application. Thereafter flats were watered and fertilized routinely. […] Shepherd's-purse was rated at 21 and 28 DAT only, due to delayed emergence.
# benghal dayflower (BD) = test: PRE greenhouse, 2,4-DC + sulfentrazone, % control; type: in vivo, Commelina benghalensis; details: 28 DAT, g ai/ha by row: r8-16 2,4-DC 50/100/200 (3 rows each) + sulfentrazone 105/210/315 (cycling)
# Method: as §1, §4, §5
# The application rates are those shown in Table 3, 3A, an d 3B below for the individual herbicidal solutions and the herbicide compositions of the present invention. The pre-emergence flats were immediately placed in the greenhouse and watered lightly after treatment for herbicide activation. […] The control of weeds was evaluated in each experimental test at 28 days after treatment (DAT), 14 DAT for crops. […] Percent weed control was determined by a method similar to the 0 to 100 rating system disclosed in “Research Methods in Weed Science,” 2nd ed., B. Truelove, Ed.; Southern Weed Science Society; Auburn University, Auburn, Ala., 1977.
# green foxtail (GF) = test: PRE greenhouse, 2,4-DC + sulfentrazone, % control; type: in vivo, Setaria viridis; details: 28 DAT, g ai/ha by row: r7-35 2,4-DC 31.2/62.5/125/250/375 (3 rows each) + sulfentrazone 105/210/315 (cycling)
# Method: as §1, §2, §3
# purple nutsedge (PN) = test: PRE greenhouse, 2,4-DC + sulfentrazone, % control; type: in vivo, Cyperus rotundus; details: 28 DAT, g ai/ha by row: r8-16 2,4-DC 50/100/200 (3 rows each) + sulfentrazone 105/210/315 (cycling)
# Method: as §1, §2, §3
# [3] = r17-19 2,4-DC 50/100/200, r20-22 sulfentrazone 105/210/315, 105 g ai/ha
# [4] = r17-19 2,4-DC 50/100/200, r20-22 sulfentrazone 105/210/315, 210 g ai/ha
# [5] = r17-19 2,4-DC 50/100/200, r20-22 sulfentrazone 105/210/315, 315 g ai/ha
smiles,measurement,setting,value
Cc1nn(-c2cc(NS(C)(=O)=O)c(Cl)cc2Cl)c(=O)n1C(F)F [sulfentrazone],% Control PA,Palmer amaranth (PA),100%
same,crop safety in words,[1],"alone was safe on corn and bush bean only at 105 g, wheat and cowpea at 105 or 210 g 14 DAT"
same,"crop injury, Sulfentrazone alone",Corn; sulfentrazone 105 g ai/ha,3%
same,"crop injury, Sulfentrazone alone",Corn; sulfentrazone 210 g ai/ha,10%
same,"crop injury, Sulfentrazone alone",Corn; sulfentrazone 315 g ai/ha,38%
same,% Control YN,yellow nutsedge (YN); [3],85%
same,% Control YN,yellow nutsedge (YN); [4],95%
same,% Control YN,yellow nutsedge (YN); [5],100%
same,% Control VL,velvetleaf (VL),100%
same,% Control MG,morningglory (MG),100%
same,weed control in words,weeds; Sugarcane (CTC20),alone controlled hairy beggarticks at 315 g; all other weeds were controlled with all rates
same,% Control PS,[2],100%
same,weed control in words,sedges,"alone controlled yellow nutsedge at all rates, benghal dayflower at 210 or 315 g and did not control purple nutsedge at any rate"
same,weed control in words,weeds,"at 280 g provided control of all weeds except quackgrass, annual bluegrass, and blackgrass"
same,% Control BD,benghal dayflower (BD); [3],72%
same,% Control BD,benghal dayflower (BD); [4],88%
same,% Control BD,benghal dayflower (BD); [5],90%
same,% Control GF,"green foxtail (GF); r37-41 2,4-DC 31.2/62.5/125/250/375, r42-44 sulfentrazone 105/210/315, 105 g ai/ha",84%
same,% Control GF,"green foxtail (GF); r37-41 2,4-DC 31.2/62.5/125/250/375, r42-44 sulfentrazone 105/210/315, 210 g ai/ha",100%
same,% Control PN,purple nutsedge (PN); [3],77%
same,% Control PN,purple nutsedge (PN); [5],83%
